Where a name gives a salt, the structure may show the parent alone.
Target: T1, human orexin-2 (hOX2) receptor (Homo sapiens, UniProt O43614)
T1 construct: expressed in transfected cells
T1 sequence (O43614 1-444): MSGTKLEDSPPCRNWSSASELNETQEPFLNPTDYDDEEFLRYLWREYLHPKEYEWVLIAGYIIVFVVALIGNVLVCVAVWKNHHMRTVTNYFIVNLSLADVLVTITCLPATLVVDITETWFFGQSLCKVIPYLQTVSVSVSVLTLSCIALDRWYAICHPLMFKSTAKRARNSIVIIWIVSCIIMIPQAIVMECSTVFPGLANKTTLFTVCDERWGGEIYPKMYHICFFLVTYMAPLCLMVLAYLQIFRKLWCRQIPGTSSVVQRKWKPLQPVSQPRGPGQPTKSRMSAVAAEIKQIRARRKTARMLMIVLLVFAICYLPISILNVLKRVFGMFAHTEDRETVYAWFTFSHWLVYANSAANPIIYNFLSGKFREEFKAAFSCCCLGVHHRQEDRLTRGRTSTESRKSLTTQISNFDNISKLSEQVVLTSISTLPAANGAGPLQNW
Assay: Intracellular Ca2+ mobilization assay (FLIPR), CHO(dHFr-) cells expressing hOX2, orexin-A at EC80 as agonist
Type: cell-based
Conditions: Kb=IC50/(1+[A]/EC50); CHO(dHFr-)-OX2R cells, antagonist applied 25 min before orexin-A EC80
Experimental: Intracellular Ca^2+ Mobilization Assay
The Chinese Hamster Ovary (dHFr−) mutant cell line stably expressing human orexin-1 (hOX1) or human orexin-2 (hOX2) receptors were maintained in Dulbecco's Modified Eagle Medium (1×) with GlutaMax™ 1, 4500 mg/L D-Glucose and Sodium Pyruvate (Catalog No. 31966-021, Invitrogen, Carlsbad, Calif.), 5% dialyzed fetal calf serum (Catalog No. 26400-044), 100 μg/ml penicillin and 100 μg/ml streptomycin. The cells were seeded at 5×10^4 cells/well in the poly-D-lysine treated, 96-well, black/clear-bottomed plates (Catalog No. BD356640, BD Biosciences, Palo Alto, Calif.). 24 h later, the cells were loaded for 1 h at 37° C. with 4 μM Flou-4 acetoxymethyl ester (Catalog No. F-14202, Molecular Probes, Eugene, Oreg.) in FLIPR buffer (1×HBSS, 20 mM HEPES, 2.5 mM Probenecid). Hanks' Balanced Salt Solution (HBSS) (10×) (catalog No. 14065-049) and HEPES (1M) (catalog No. 15630-056) were purchased from Invitrogen, Carlsbad, Calif. Probenecid (250 mM) (catalog No. P8761) was from Sigma, Buchs, Switzerland. The cells were washed five times with FLIPR buffer to remove excess dye and intracellular calcium mobilization, [Ca^2+]i were measured using a Fluorometric Imaging Plate Reader (FLIPR-96, Molecular Devices, Menlo Park, Calif.) as described previously (Malherbe et al., Mol. Pharmacol., 64, 823-832, 2003). Orexin A (catalog No. 1455, Toris Cookson Ltd, Bristol, UK) was used as agonist. Orexin A (50 mM stock solution in DMSO) was diluted in FLIPR buffer +0.1% BSA. The EC50 and EC80 values of orexin-A were measured daily from standard agonist concentration-response curves in CHO(dHFr−) —OX1R and —OX2R cell lines. All compounds were dissolved in 100% DMSO. Inhibition curves were determined by addition of 11 concentrations (0.0001-10 μM) of inhibitory compounds and using EC80 value of orexin-A as agonist (a concentration which gave 80% of max agonist response, determined daily). The antagonists were applied 25 min (incubation at 37° C.) before the application of the agonist. Responses were measured as peak increase in fluorescence minus basal, normalized to the maximal stimulatory effect induced by EC80 value of orexin-A or orexin-B. Inhibition curves were fitted according to the Hill equation: y=100/(1+(x/IC50)^nH), where nH=slope factor using Excel-fit 4 software (Microsoft).
Kb values were calculated according to the following equation Kb=IC50/(1+[A]/EC50) where A is the concentration of agonist added which is very close to agonist EC80 value, and IC50 and EC50 values were derived from the antagonist inhibition and orexin-A or B agonist curves, respectively.

Compound | Kb [µM]
Cc1ccc(CCN(C(=O)C(NC(C)(C)CO)c2ccccc2)c2ccc(C)c(C)c2)cc1 (stereo not drawn) [Example 132, N-(3,4-Dimethyl-phenyl)-2-(2-hydroxy-1,1-dimethyl-ethylamino)-2-phenyl-N-(2-p-tolyl-ethyl)-acetamide] | 0.0642
Cc1ccc(CCN(C(=O)C(NCC2OCCO2)c2ccccc2)c2ccc(C)c(C)c2)cc1 (stereo not drawn) [Example 133, N-(3,4-Dimethyl-phenyl)-2-[([1,3]dioxolan-2-ylmethyl)-amino]-2-phenyl-N-(2-p-tolyl-ethyl)-acetamide] | 0.007
Cc1ccc(CCN(C(=O)C(NC[C@@H]2CCCO2)c2ccccc2)c2ccc(C)c(C)c2)cc1 (stereo partly drawn) [Example 134, N-(3,4-Dimethyl-phenyl)-2-phenyl-2-{[(S)-1-(tetrahydro-furan-2-yl)methyl]-amino}-N-(2-p-tolyl-ethyl)-acetamide] | 0.0161
C=COCCNC(C(=O)N(CCc1ccc(C)cc1)c1ccc(C)c(C)c1)c1ccccc1 (stereo not drawn) [Example 135, N-(3,4-Dimethyl-phenyl)-2-phenyl-N-(2-p-tolyl-ethyl)-2-(2-vinyloxy-ethylamino)-acetamide] | 0.0379
CCOCCNC(C(=O)N(CCc1ccc(C)cc1)c1ccc(C)c(C)c1)c1ccccc1 (stereo not drawn) [Example 136, N-(3,4-Dimethyl-phenyl)-2-(2-ethoxy-ethylamino)-2-phenyl-N-(2-p-tolyl-ethyl)-acetamide] | 0.0201
NC(C(=O)N(CCc1ccc(C(F)(F)F)cc1)c1ccc2c(c1)CCCC2)c1ccccc1 (stereo not drawn) [Example 137, 2-Amino-2-phenyl-N-(5,6,7,8-tetrahydro-naphthalen-2-yl)-N-[2-(4-trifluoromethyl-phenyl)-ethyl]-acetamide] | 0.0364
Cc1ccc(N(CCc2ccc(C(F)(F)F)cc2)C(=O)[C@@H](N)c2ccccc2)cc1C [Example 138, (S)-2-Amino-N-(3,4-dimethyl-phenyl)-2-phenyl-N-[2-(4-trifluoromethyl-phenyl)-ethyl]-acetamide] | 0.0364
CCOc1ccc(N(CCc2ccc(C(F)(F)F)cc2)C(=O)[C@@H](N)c2ccccc2)cc1OCC [Example 140, (S)-2-Amino-N-(3,4-diethoxy-phenyl)-2-phenyl-N-[2-(4-trifluoromethyl-phenyl)-ethyl]-acetamide] | 0.0127
Cc1ccc(CCN(C(=O)[C@@H](N)c2ccc(F)cc2)c2ccc(C)c(C)c2)cc1 [Example 144, (S)-2-Amino-N-(3,4-dimethyl-phenyl)-2-(4-fluoro-phenyl)-N-(2-p-tolyl-ethyl)-acetamide] | 0.0174
Cc1ccc(N(CCc2ccc(C(F)(F)F)cc2)C(=O)[C@@H](N)c2ccccc2)cc1 [Example 146, (S)-2-Amino-2-phenyl-N-p-tolyl-N-[2-(4-trifluoromethyl-phenyl)-ethyl]-acetamide] | 0.0335
N[C@H](C(=O)N(CCc1ccc(C(F)(F)F)cc1)c1ccc(OC(F)F)cc1)c1ccccc1 [Example 148, (S)-2-Amino-N-(4-difluoromethoxy-phenyl)-2-phenyl-N-[2-(4-trifluoromethyl-phenyl)-ethyl]-acetamide] | 0.0217
N[C@H](C(=O)N(CCc1ccc(C(F)(F)F)cc1)c1ccc2c(c1)CCCC2)c1ccccc1 [Example 150, (S)-2-Amino-2-phenyl-N-(5,6,7,8-tetrahydro-naphthalen-2-yl)-N-[2-(4-trifluoromethyl-phenyl)-ethyl]-acetamide] | 0.0682

Second part, the molecule after the results:

Kb [µM] | Compound
0.0112 | COc1cccc(N(CCc2ccc(C(F)(F)F)cc2)C(=O)[C@@H](N)c2ccccc2)c1 [Example 151, (S)-2-Amino-N-(3-methoxy-phenyl)-2-phenyl-N-[2-(4-trifluoromethyl-phenyl)-ethyl]-acetamide]
0.051 | Cc1ccc(N(CCc2ccc(C(F)(F)F)cc2)C(=O)[C@@H](N)c2ccc(F)cc2)cc1C [Example 154, (S)-2-Amino-N-(3,4-dimethyl-phenyl)-2-(4-fluoro-phenyl)-N-[2-(4-trifluoromethyl-phenyl)-ethyl]-acetamide]
0.0322 | CN[C@H](C(=O)N(CCc1ccc(C(F)(F)F)cc1)c1ccc(C)c(C)c1)c1ccccc1OC [Example 157, (S)—N-(3,4-Dimethyl-phenyl)-2-(2-methoxy-phenyl)-2-methylamino-N-[2-(4-trifluoromethyl-phenyl)-ethyl]-acetamide]
0.0542 | Cc1ccc(N(CCc2ccc(C(F)(F)F)cc2)C(=O)[C@@H](O)c2ccccc2)cc1C [Example 159, (S)—N-(3,4-Dimethyl-phenyl)-2-hydroxy-2-phenyl-N-[2-(4-trifluoromethyl-phenyl)-ethyl]-acetamide]
0.0291 | COc1cccc(N(CCc2ccc(C(F)(F)F)cc2)C(=O)[C@@H](N)c2ccc(F)cc2)c1 [Example 160]
0.0908 | Cc1ccc(N(CCc2ccc(C(F)(F)F)cc2)C(=O)[C@@H](O)c2ccc(F)cc2)cc1C [Example 161, (S)—N-(3,4-Dimethyl-phenyl)-2-(4-fluoro-phenyl)-2-hydroxy-N-[2-(4-trifluoromethyl-phenyl)-ethyl]-acetamide]
0.0151 | COc1cc(N(CCc2ccc(C(F)(F)F)cc2)C(=O)[C@@H](N)c2ccccc2)ccc1C [Example 162, (S)-2-Amino-N-(3-methoxy-4-methyl-phenyl)-2-phenyl-N-[2-(4-trifluoromethyl-phenyl)-ethyl]-acetamide]
0.0778 | N[C@H](C(=O)N(CCc1ccc(C(F)(F)F)cc1)c1ccc(OC(F)F)c(Cl)c1)c1ccc(F)cc1 [Example 163, (S)-2-Amino-N-(3-chloro-4-difluoromethoxy-phenyl)-2-(4-fluoro-phenyl)-N-[2-(4-trifluoromethyl-phenyl)-ethyl]-acetamide]
0.0673 | CCOc1ccc(N(CCc2ccc(C(F)(F)F)cc2)C(=O)[C@@H](N)c2ccc(F)cc2)cc1Cl [Example 165, (S)-2-Amino-N-(3-chloro-4-ethoxy-phenyl)-2-(4-fluoro-phenyl)-N-[2-(4-trifluoromethyl-phenyl)-ethyl]-acetamide]
0.0011 | COc1ccc(N(CCc2ccc(C(F)(F)F)cc2)C(=O)[C@@H](N)c2ccccc2)cc1OC [Example 173, (S)-2-Amino-N-(3,4-dimethoxy-phenyl)-2-phenyl-N-[2-(4-trifluoromethyl-phenyl)-ethyl]-acetamide hydrochloride]
0.0219 | Cc1ccc(N(CCc2ccc(F)cc2)C(=O)[C@@H](N)c2ccccc2)cc1C [Example 175, (S)-2-Amino-N-(3,4-dimethyl-phenyl)-N-[2-(4-fluoro-phenyl)-ethyl]-2-phenyl-acetamide]
0.0505 | Cc1ccc(N(CCc2ccc(OC(F)(F)F)cc2)C(=O)[C@@H](N)c2ccccc2)cc1C [Example 176, (S)-2-Amino-N-(3,4-dimethyl-phenyl)-2-phenyl-N-[2-(4-trifluoromethoxy-phenyl)-ethyl]-acetamide]
0.036 | Cc1ccc(N(CCc2ccccc2F)C(=O)[C@@H](N)c2ccccc2)cc1C [Example 180, (S)-2-Amino-N-(3,4-dimethyl-phenyl)-N-[2-(2-fluoro-phenyl)-ethyl]-2-phenyl-acetamide hydrochloride]
0.0708 | Cc1cccc(CCN(C(=O)[C@@H](N)c2ccccc2)c2ccc(C)c(C)c2)c1 [Example 181, (S)-2-Amino-N-(3,4-dimethyl-phenyl)-2-phenyl-N-(2-m-tolyl-ethyl)-acetamide hydrochloride]
0.0283 | Cc1ccc(N(CCc2cccc(F)c2)C(=O)[C@@H](N)c2ccccc2)cc1C [Example 182, (S)-2-Amino-N-(3,4-dimethyl-phenyl)-N-[2-(3-fluoro-phenyl)-ethyl]-2-phenyl-acetamide hydrochloride]

— patent US20090036422A1 (priority 2007, published 2009)
